Consider six molecules from patent US9221833B2, “Antiviral compounds” (GILEAD PHARMASSET LLC, priority 2011, dated 2015).

What all share (type): cell-based, HCV
The test system of test [1] is genotype 4a ED43 strain NS5A gene. Nature of the test: Replicon assay, NS5A chimeric 1b Con1 replicon with 4a NS5A, transiently transfected Huh-Lunet cells. As to conditions: Hepatitis C virus. The procedure:
Evaluation of cell-based anti-HCV activity: Antiviral potency (EC50) was determined using a Renilla luciferase (RLuc)-based HCV replicon reporter assay. […] To perform the assay for genotype 2a (with M31 present in NS5A) or 2b, NS5A chimeric genotype 2a JFH-1 replicons that encodes a RLuc-Neo reporter and either genotype 2a J6 strain NS5A gene or genotype 2b MD2b-1 strain NS5A gene (both with M31 present) respectively, were either transiently transfected (t) into Huh-Lunet cells or were established as stably replicating replicon cells (s) is provided. Either cells were dispensed into 384-well plates for EC50 assays. To perform the assay for genotype 3 and 4, NS5A chimeric genotype 1b Con1 replicons that encodes a Pi-RLuc reporter and either genotype 3a S52 strain NS5A gene or genotype 4a ED43 strain NS5A gene respectively, […], which were subsequently dispensed into 384-well plates. Compounds were dissolved in DMSO at a concentration of 10 mM and diluted in DMSO either manually or using an automated pipeting instrument. Serially 3-fold diluted compounds were either manually mixed with cell culture media and added to the seeded cells or directly added to the cells using an automated instrument. […] 72 hours later, cells were lysed and Renilla luciferase activity quantified as recommended by the manufacturer (Promega-Madison, Wis.). Non-linear regression was performed to calculate EC50 values.
In general terms: A replicon is a self-replicating genome or part of one, used to study replication in cells.

In test [2] the test system is genotype 2a JFH-1 replicon (L31 present in NS5A). Nature of the test: microbe, parasite or virus in culture. As to conditions: Hepatitis C virus, read-out: 2a JFH.
Test [3] concerns Q30R in genotype 1a NS5A. As to the kind of experiment: Antiviral potency against resistance mutant, 1a Pi-Rluc replicon in Huh-7-derived cured-51 cells. As to conditions: Hepatitis C virus. The procedure: (§1) Evaluation of cell-based anti-HCV activity: Antiviral potency (EC50) was determined using a Renilla luciferase (RLuc)-based HCV replicon reporter assay. […] To perform the assay for genotype 2a (with M31 present in NS5A) or 2b, NS5A chimeric genotype 2a JFH-1 replicons that encodes a RLuc-Neo reporter and either genotype 2a J6 strain NS5A gene or genotype 2b MD2b-1 strain NS5A gene (both with M31 present) respectively, were either transiently transfected (t) into Huh-Lunet cells or were established as stably replicating replicon cells (s) is provided. Either cells were dispensed into 384-well plates for EC50 assays. To perform the assay for genotype 3 and 4, NS5A chimeric genotype 1b Con1 replicons that encodes a Pi-RLuc reporter and either genotype 3a S52 strain NS5A gene or genotype 4a ED43 strain NS5A gene respectively, were transiently transfected (t) into Huh-Lunet cells, which were subsequently dispensed into 384-well plates. Compounds were dissolved in DMSO at a concentration of 10 mM and diluted in DMSO either manually or using an automated pipeting instrument. Serially 3-fold diluted compounds were either manually mixed with cell culture media and added to the seeded cells or directly added to the cells using an automated instrument. […] 72 hours later, cells were lysed and Renilla luciferase activity quantified as recommended by the manufacturer (Promega-Madison, Wis.). Non-linear regression was performed to calculate EC50 values.
To determine the antiviral potency (EC50) against resistance mutants, resistance mutations, including M28T, Q30R, Q30H, L31M, and Y93C in genotype 1a NS5A and Y93H in genotype 1b NS5A, were introduced individually into either 1a Pi-Rluc or 1b Pi-Rluc replicons by site directed mutagenesis. Replicon RNA of each resistant mutant was transiently transfected into Huh-7-derived cured-51 cells and antiviral potency was determined on these transfected cells as described above.

Test [4] deals with genotype 2a JFH-1 replicon (L31 present in NS5A). Nature of the test: microbe, parasite or virus in culture. The following applies: Hepatitis C virus, read-out: 2a JFH (nM). The procedure:
as §1

The test system of test [5] is genotype 2b MD2b-1 strain NS5A gene (M31 present). As to the kind of experiment: microbe, parasite or virus in culture. As to conditions: Hepatitis C virus. The procedure:
as §1

In test [6] the test system is genotype 1b Con1 replicon. As to the kind of experiment: microbe, parasite or virus in culture. The following applies: Hepatitis C virus, read-out: 1b (nM). The procedure:
as §1

Test [7] concerns genotype 1a H77 replicon. As to the kind of experiment: microbe, parasite or virus in culture. The following applies: Hepatitis C virus. The procedure: as §1
Test [8] deals with genotype 2a J6 strain NS5A gene (M31 present). As to the kind of experiment: Replicon assay, NS5A chimeric 2a JFH-1 replicon with 2a J6 NS5A, transient (t) or stable (s), Huh-Lunet cells. The following applies: Hepatitis C virus. The procedure: as §1
Test [9] deals with genotype 3a S52 strain NS5A gene. As to the kind of experiment: Replicon assay, NS5A chimeric 1b Con1 replicon with 3a NS5A, transiently transfected Huh-Lunet cells. The following applies: Hepatitis C virus. The procedure: as §1

Each structure is given as a SMILES string. Where two headings read alike, the source gives them in different places. Where only a bound is given, the exact number is not on record here.

As for `COC(=O)NC(C(=O)N1CCCC1c1nc2ccc3cc4c(cc3c2[nH]1)OCc1cc(-c2cnc(C3CCCN3C(=O)C(NC(=O)O)C(C)C)[nH]2)ccc1-4)c1ccccc1` (centres unmarked) [Example LQ, [1-(2-{5-[2-(1-{[(Methoxycarbonyl)amino](phenyl)acetyl}pyrrolidin-2-yl)-1,11-dihydroisochromeno[4′,3′:6,7]naphtho[1,2-d]imidazol-9-yl]-1H-imidazol-2-yl}pyrrolidin-1-yl)-3-methyl-1-oxobutan-2-yl]carbamic acid], the EC50 is less than 1 nM in [1] (read-out: 4a); 0.02 nM in test [1] (read-out: 4a (s) (nM)); 0.008 nM in test [1] (read-out: 4a (t) (nM)); less than 1 nM in test [2]; less than 1 nM in test [3] (read-out: 1a Q30R); 0.135 nM in test [3] (read-out: 1a Q30R (nM)). For the same molecule, the EC50 is 0.004 nM in test [4]; less than 1 nM in test [5] (read-out: 2b); 0.035 nM in [5] (read-out: 2b (s) (nM)); 0.012 nM in test [5] (read-out: 2b (t) (nM)); 0.02 nM in test [6]; less than 1 nM in test [7] (read-out: 1a). The EC50 in test [7] (read-out: 1a (nM)) is 0.022 nM; in test [8] (read-out: 2a J6) it was less than 1 nM; in [8] (read-out: 2a J6 (s) (nM)), 0.543 nM; in test [8] (read-out: 2a J6 (t) (nM)), 0.134 nM; in [9] (read-out: 3a) it was less than 1 nM; in test [9] (read-out: 3a (nM)) it was 0.005 nM.
With `CC[C@@H](C)[C@H](NC(=O)OC)C(=O)N1C[C@@H](C)C[C@H]1c1ncc(-c2ccc3c(c2)COc2cc4c(ccc5nc([C@@H]6C[C@H](COC)CN6C(=O)[C@H](NC(=O)OC)c6ccccc6)[nH]c54)cc2-3)[nH]1` [Example QB, Methyl {(1R)-2-[(2S,4S)-2-(9-{2-[(2S,4S)-1-{(2S,3R)-2-[(methoxycarbonyl)amino]-3-methylpentanoyl}-4-methylpyrrolidin-2-yl]-1H-imidazol-5-yl}-1,11-dihydroisochromeno[4′,3′:6,7]naphtho[1,2-d]imidazol-2-yl)-4-(methoxymethyl)pyrrolidin-1-yl]-2-oxo-1-phenylethyl}carbamate], the EC50 in test [2] is less than 1 nM; in test [3] (read-out: 1a Q30R) it was less than 1 nM; in test [4], 0.008 nM; in test [5] (read-out: 2b) it was less than 1 nM; in [7] (read-out: 1a), less than 1 nM; in [8] (read-out: 2a J6) it was less than 1 nM. Also, the EC50 in test [9] (read-out: 3a) is less than 1 nM.
As for `COC(=O)N[C@H](C(=O)N1CCC[C@H]1c1nc2c(ccc3cc4c(cc32)OCc2cc(-c3cnc([C@@H]5CCCN5C(=O)[C@H](NC(=O)OC)c5ccccc5)[nH]3)ccc2-4)[nH]1)C(C)C` [Example MD], the EC50 was less than 1 nM in [1] (read-out: 4a); less than 1 nM in [2]; less than 1 nM in test [3] (read-out: 1a Q30R); 0.006 nM in [4]; less than 1 nM in [5] (read-out: 2b); less than 1 nM in [7] (read-out: 1a). Further, the EC50 was less than 1 nM in test [8] (read-out: 2a J6), less than 1 nM in [9] (read-out: 3a) and 0.006 nM in test [9] (read-out: 3a (nM)).
For `COC[C@H]1C[C@@H](c2nc3ccc4cc5c(cc4c3[nH]2)OCc2cc(-c3cnc([C@@H]4C[C@H]6C[C@H]6N4C(=O)[C@@H](NC(=O)OC)[C@@H](C)OC)[nH]3)ccc2-5)N(C(=O)[C@H](NC(=O)OC)c2ccccc2)C1` [Example MX], the EC50 in test [1] (read-out: 4a) was less than 1 nM; in test [1] (read-out: 4a (s) (nM)), 0.033 nM; in test [2] it was less than 1 nM; in test [4], 0.024 nM; in test [5] (read-out: 2b) it was less than 1 nM; in test [5] (read-out: 2b (s) (nM)) it was 0.139 nM. The EC50 in test [5] (read-out: 2b (t) (nM)) was 0.07 nM; in test [6] it was 0.076 nM; in test [7] (read-out: 1a), less than 1 nM; in test [7] (read-out: 1a (nM)), 0.036 nM; in test [8] (read-out: 2a J6), less than 1 nM; in [8] (read-out: 2a J6 (t) (nM)) it was 0.035 nM.
For the molecule `COC[C@H]1CC(c2ncc(-c3ccc4c(c3)COc3cc5c(ccc6nc([C@@H]7CC[C@H](C)N7C(=O)[C@@H](NC(=O)OC)C(C)C)[nH]c65)cc3-4)[nH]2)N(C(=O)[C@@H](NC(=O)OC)C(C)OC)C1` (stereo in doubt) [Example QA, Methyl {(2S)-1-[(2S,5S)-2-(9-{2-[(2S,4S)-1-{(2S,3S)-3-methoxy-2-[(methoxycarbonyl)amino]butanoyl}-4-(methoxymethyl)pyrrolidin-2-yl]-1H-imidazol-5-yl}-1,11-dihydroisochromeno[4′,3′:6,7]naphtho[1,2-d]imidazol-2-yl)-5-methylpyrrolidin-1-yl]-3-methyl-1-oxobutan-2-yl}carbamate], the EC50 in [2] is less than 1 nM; in [3] (read-out: 1a Q30R), less than 1 nM; in test [4], 0.007 nM; in test [5] (read-out: 2b) it was less than 1 nM; in test [5] (read-out: 2b (s) (nM)), 0.04 nM; in [7] (read-out: 1a), less than 1 nM. In addition, the EC50 in [8] (read-out: 2a J6) and in test [9] (read-out: 3a) was less than 1 nM in each case.
Regarding `CCC(C)[C@H](NC(=O)OC)C(=O)N1C[C@@H](C)CC1c1ncc(-c2ccc3c(c2)COc2cc4c(ccc5nc([C@@H]6C[C@H](COC)CN6C(=O)[C@@H](NC(=O)OC)C(C)OC)[nH]c54)cc2-3)[nH]1` (stereo in doubt) [Example QD, Methyl {(2S,3R)-1-[(2S,4S)-2-(5-{2-[(2S,4S)-1-[N-(methoxycarbonyl)-O-methyl-L-allothreonyl]-4-(methoxymethyl)pyrrolidin-2-yl]-1,11-dihydroisochromeno[4′,3′:6,7]naphtho[1,2-d]imidazol-9-yl}-1H-imidazol-2-yl)-4-methylpyrrolidin-1-yl]-3-methyl-1-oxopentan-2-yl}carbamate], the EC50 in test [2] is less than 1 nM; in [5] (read-out: 2b) it was less than 1 nM; in test [6], 0.03 nM; in test [7] (read-out: 1a), less than 1 nM; in test [8] (read-out: 2a J6), less than 1 nM.
